The target in one assay is JMJD3 (KDM6B) (Homo sapiens, UniProt O15054). Kind of assay: KDM AlphaScreen assay, JMJD3. Background: Alpha assays give light when donor and acceptor beads are brought close together.
In a further assay the target is JARID1C (KDM5C) (Homo sapiens, UniProt P41229). Nature of the assay: KDM AlphaScreen assay, JARID1C.
Another assay relates to RCC4 cells. Kind of assay: Immunoblotting of HIF1α hydroxylation in VHL-defective RCC4 cells. Format: cell-based, human. As to conditions: immunoblot. Here is the method: Human cell lines (RCC4, HeLa, Hep3B, MCF-7 and U2OS) were cultured in DMEM (D6546-500ML; Sigma Aldrich) each supplemented with 10% fetal bovine serum (F7524-500ML; Sigma Aldrich), 2 mM L-glutamine (G7513- 100ML; Sigma Aldrich), 50 units/ml of penicillin, and 50 μg/ml of streptomycin (P0781-100ML; Sigma Aldrich). The RCC4 cell line was a gift from C.H.C.M. Buys (University of Groningen, [2]), the HeLa and Hep3B cell lines were from the European Collection of Cell Cultures (ECACC), the MCF-7 cell line was from the American Type Culture Collection (ATCC) and the U2OS cell line was a gift from S.Galey (ICRF Clare Hall Laboratories, United Kingdom). Cells were treated either with DMSO (control) or compounds (dissolved in DMSO) and added directly into the cell culture medium to the desired final concentration for 4–5 h as previously described.
Cells were extracted using urea/SDS buffer (6.7 M urea, 10 mM Tris-HCl pH 6.8, 10% glycerol and 1% SDS) and processed for immunoblotting as described. The following primary antibodies were used for immunoblotting: mouse monoclonal HIF1α antibody clone 54 (610958, BD Transduction Laboratories, 1:1000), rabbit polyclonal HIF1α hydroxy-Pro402 antibody (07–1585, Millipore, 1:1000), rabbit monoclonal HIF1α hydroxy-Pro564 antibody clone D43B5 (3434S, Cell Signaling, 1:500), mouse monoclonal HIF1α hydroxy-Asn803 antibody (a kind gift from Dr M. K. Lee, Republic of Korea, 1:4000), mouse monoclonal PHD2 antibody clone 76a (1:10), mouse monoclonal FIH antibody clone 162c (1:200) and β-actin/HRP (clone AC15, Abcam). HRP-conjugated swine polyclonal anti-rabbit IgG (P0399, Dako), and goat polyclonal anti-mouse IgG (P0447, Dako) were used as secondary antibodies.
In this cell line, the extent of the differential HIF1α prolyl hydroxylation at the N-terminal and C-terminal oxygen-dependent degradation domains (HyPro402 and HyPro564, respectively), as well as HIF1α asparaginyl hydroxylation at the C-terminal transactivation domain (HyAsn803) can be interrogated by immunoblotting using hydroxylation specific antibodies.
For orientation: A western blot detects proteins with antibodies after separation by electrophoresis.

The subject of another assay is U2OS. Kind of assay: Quantitative HIF1α MSD immunoassay, U2OS. As to conditions: Homo sapiens, read-out: HIF1α EC50. Format: cell-based. Here is the method:
Cells were seeded into 96-well cell culture plates (150 μl culture volume) at approximately 60–70% confluency at least 12 h prior to the compound treatment. Half of the culture medium (75 μl/well) were removed and 75 μl/well of medium containing the desired concentrations of compounds were added into cells for 5 h. The cell medium was then removed and the cells were washed once with phosphate buffered saline (PBS), followed by the addition of lysis buffer (20 mM Tris pH 7.4, 450 mM NaCl, 1 mM EDTA, 1 mM EGTA, 0.5% Triton X-100, 1x complete protease inhibitor cocktail and 100 μM DFO). Plates were then left at 4°C with shaking. […] Plates were washed thrice with Tris Wash Buffer, added with 150 μl/well 2X Read Buffer (R92TC, Meso Scale Discovery) before being read with an MSD Sector S600 plate reader (Meso Scale Discovery). Signals generated were normalized to “lysis buffer-only” controls.
To quantify the cellular efficiency of PHD inhibition, we developed an electrochemiluminescence-based assay for the quantification of HIF1α levels using the Meso Scale Discovery (MSD, http://www.mesoscale.com) technology (HIF1α MSD assay), which is based on the capture and detection of HIF1α protein using two specific HIF1α antibodies. […]

The target of the next assay is T1, FBXL11 (KDM2A) (Homo sapiens, UniProt Q9Y2K7).
T1 sequence (Q9Y2K7 1-1162): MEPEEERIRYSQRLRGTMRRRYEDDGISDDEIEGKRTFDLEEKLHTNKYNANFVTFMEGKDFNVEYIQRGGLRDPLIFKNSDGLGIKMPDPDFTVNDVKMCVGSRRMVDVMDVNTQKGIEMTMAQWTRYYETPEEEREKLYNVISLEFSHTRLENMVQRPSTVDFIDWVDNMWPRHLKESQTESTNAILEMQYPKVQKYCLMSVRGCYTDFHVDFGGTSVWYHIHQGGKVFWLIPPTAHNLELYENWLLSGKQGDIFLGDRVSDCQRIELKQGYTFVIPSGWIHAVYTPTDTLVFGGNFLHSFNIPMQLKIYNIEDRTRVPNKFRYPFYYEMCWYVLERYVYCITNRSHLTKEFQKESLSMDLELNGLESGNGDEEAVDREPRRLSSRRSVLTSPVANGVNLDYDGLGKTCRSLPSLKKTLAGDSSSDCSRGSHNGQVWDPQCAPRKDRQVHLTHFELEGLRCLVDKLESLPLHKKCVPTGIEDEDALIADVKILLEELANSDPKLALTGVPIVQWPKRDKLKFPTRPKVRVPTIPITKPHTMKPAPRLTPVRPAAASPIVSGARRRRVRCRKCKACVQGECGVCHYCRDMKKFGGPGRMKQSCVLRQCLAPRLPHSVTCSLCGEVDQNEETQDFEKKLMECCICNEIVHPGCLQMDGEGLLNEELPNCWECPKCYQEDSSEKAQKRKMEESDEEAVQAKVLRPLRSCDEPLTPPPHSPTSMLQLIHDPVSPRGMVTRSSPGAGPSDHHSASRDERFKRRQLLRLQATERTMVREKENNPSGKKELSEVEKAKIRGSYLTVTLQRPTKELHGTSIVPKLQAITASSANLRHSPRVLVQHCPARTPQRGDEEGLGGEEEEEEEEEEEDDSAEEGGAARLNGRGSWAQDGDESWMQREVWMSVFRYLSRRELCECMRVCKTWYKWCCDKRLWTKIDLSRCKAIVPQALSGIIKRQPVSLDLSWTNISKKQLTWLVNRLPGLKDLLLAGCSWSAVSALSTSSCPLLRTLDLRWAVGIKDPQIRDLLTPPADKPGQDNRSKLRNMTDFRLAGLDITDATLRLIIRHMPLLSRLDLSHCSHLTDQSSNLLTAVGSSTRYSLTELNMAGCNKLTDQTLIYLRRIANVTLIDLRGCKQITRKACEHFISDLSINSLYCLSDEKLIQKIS
Nature of the assay: KDM AlphaScreen assay, FBXL11.

Where a name gives a salt, the structure may show the parent alone. Read-outs that look alike come from different tables or passages of the source. A value given as a limit tells only on which side of the number the result lay.

The IC50 is the concentration that inhibits the measured activity by half. Broadly, the EC50 is the concentration giving half of the maximal effect.

Chain of JMJD3 (KDM6B) (O15054 whole entry): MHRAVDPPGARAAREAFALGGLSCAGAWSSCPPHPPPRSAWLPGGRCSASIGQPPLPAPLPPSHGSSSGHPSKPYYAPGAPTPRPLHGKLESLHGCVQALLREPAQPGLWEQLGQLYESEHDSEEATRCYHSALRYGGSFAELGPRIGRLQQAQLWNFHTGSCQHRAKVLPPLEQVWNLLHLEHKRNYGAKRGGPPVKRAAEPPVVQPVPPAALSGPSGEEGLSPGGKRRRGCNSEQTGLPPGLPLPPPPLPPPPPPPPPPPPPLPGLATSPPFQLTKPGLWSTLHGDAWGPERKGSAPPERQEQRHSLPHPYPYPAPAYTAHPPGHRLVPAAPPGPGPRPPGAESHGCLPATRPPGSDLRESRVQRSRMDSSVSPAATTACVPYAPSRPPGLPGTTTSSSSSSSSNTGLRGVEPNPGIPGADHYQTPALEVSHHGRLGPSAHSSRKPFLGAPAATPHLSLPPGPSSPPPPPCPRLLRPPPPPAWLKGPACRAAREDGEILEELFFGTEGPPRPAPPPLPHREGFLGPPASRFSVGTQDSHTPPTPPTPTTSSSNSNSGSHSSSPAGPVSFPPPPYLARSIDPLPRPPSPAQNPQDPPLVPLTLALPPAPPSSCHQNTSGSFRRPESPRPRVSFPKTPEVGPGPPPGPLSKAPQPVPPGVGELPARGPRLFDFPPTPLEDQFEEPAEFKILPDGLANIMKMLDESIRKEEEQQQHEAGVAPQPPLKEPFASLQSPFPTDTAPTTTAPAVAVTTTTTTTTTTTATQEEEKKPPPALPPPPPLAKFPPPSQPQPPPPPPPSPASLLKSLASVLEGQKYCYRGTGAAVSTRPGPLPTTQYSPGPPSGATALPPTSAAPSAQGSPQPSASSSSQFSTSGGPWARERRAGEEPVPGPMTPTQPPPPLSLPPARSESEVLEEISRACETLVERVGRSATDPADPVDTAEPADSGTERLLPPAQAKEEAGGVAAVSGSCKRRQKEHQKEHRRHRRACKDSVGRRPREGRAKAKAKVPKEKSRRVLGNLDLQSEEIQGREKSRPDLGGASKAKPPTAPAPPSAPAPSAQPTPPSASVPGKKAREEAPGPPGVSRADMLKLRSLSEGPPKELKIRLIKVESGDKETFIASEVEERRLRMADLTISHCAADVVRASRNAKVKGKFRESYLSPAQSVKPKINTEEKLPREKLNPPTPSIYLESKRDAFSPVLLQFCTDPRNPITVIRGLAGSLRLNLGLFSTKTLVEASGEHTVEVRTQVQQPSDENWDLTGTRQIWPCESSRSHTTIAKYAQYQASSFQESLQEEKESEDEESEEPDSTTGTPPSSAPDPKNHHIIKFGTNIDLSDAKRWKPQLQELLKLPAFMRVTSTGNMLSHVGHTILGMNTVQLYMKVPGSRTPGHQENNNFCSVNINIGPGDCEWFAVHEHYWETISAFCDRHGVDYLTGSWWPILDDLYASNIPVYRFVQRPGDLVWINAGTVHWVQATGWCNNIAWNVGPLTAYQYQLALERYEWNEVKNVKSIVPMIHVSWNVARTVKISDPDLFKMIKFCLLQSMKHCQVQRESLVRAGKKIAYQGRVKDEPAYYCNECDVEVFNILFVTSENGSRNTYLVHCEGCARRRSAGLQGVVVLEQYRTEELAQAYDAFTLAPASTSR
Chain of JARID1C (KDM5C) (P41229 whole entry): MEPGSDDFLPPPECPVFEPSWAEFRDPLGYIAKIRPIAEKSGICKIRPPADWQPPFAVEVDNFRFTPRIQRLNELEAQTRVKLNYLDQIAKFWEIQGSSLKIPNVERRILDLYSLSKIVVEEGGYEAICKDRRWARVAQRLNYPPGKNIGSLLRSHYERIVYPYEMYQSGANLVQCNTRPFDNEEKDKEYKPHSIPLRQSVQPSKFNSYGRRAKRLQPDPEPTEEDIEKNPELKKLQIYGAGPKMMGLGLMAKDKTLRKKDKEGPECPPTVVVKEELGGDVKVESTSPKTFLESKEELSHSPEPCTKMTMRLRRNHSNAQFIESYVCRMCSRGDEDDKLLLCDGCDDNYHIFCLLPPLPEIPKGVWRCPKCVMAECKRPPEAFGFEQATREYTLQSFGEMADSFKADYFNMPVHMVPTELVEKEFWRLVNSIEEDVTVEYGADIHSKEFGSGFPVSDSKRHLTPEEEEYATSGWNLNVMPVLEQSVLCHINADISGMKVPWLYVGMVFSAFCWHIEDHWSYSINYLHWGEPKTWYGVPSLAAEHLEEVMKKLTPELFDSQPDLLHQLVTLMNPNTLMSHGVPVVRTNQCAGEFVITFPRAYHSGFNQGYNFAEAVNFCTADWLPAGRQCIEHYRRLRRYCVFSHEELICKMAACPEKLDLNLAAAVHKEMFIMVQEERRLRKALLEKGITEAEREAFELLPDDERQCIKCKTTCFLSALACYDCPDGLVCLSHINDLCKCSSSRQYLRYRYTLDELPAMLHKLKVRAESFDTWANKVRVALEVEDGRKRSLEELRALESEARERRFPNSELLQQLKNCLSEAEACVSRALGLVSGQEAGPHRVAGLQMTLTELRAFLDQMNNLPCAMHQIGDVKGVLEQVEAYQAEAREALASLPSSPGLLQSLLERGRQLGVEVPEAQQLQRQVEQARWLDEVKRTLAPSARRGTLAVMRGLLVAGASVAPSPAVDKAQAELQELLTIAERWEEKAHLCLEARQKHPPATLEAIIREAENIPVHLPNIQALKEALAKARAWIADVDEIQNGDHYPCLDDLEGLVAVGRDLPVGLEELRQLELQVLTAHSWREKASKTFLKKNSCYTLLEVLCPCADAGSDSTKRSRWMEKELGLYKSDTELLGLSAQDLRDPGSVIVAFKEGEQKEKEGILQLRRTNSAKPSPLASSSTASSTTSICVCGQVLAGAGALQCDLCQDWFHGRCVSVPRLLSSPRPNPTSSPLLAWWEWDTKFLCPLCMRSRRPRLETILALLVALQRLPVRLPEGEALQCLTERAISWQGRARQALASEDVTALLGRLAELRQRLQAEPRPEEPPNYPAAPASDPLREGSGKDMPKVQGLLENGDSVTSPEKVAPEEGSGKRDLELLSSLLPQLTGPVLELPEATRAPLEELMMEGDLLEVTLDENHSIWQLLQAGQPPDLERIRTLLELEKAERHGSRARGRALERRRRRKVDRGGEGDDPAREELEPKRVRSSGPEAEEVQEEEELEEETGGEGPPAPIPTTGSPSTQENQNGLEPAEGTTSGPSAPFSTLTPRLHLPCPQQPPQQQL
Procedure for FBXL11 (KDM2A): (§1) Inhibition assays for PHD2 (AlphaScreen) [9], the KDMs (AlphaScreen) [17], BBOX [18] and FTO [19] were carried out as previously described. […] IC50 values were calculated using nonlinear regression with normalized dose-response fit using GraphPad Prism 5.
Procedure for JARID1C (KDM5C): as §1
Procedure for JMJD3 (KDM6B): as §1

Take `CC(C)(C)OC(=O)c1ccc(-n2[nH]cc(-n3ccnn3)c2=O)nc1` [IOX4, t-Butyl 6-(5-oxo-4-(1H-1,2,3-triazol-1-yl)-2,5-dihydro-1H-pyrazol-1-yl)nicotinate]: the half-maximal inhibitory concentration (IC50) was 1.4 µM on JMJD3 (KDM6B), over 100 µM against JARID1C (KDM5C) and 20 µM at FBXL11 (KDM2A). Also, the “HIF1α prolyl-hydroxylation (HyPro402, HyPro564)” value in the assay on RCC4 cells is “block prolyl-hydroxylation of HIF1α at both NODD (HyPro402) and CODD (HyPro564)”. The “HIF1α asparaginyl-hydroxylation (HyAsn803)” value in the assay with RCC4 cells (50 μM) was “some apparent inhibition”. In addition, in the assay on U2OS (5 h), the concentration for a half-maximal effect (EC50) amounted to 5.6 µM.
In the case of `O=C(O)c1ccc(-n2[nH]cc(-n3ccnn3)c2=O)nc1` [compound 1, 6-(5-oxo-4-(1H-1,2,3-triazol-1-yl)-2,5-dihydro-1H-pyrazol-1-yl)pyridine-3-carbocylic acid hydrochloride], the IC50 on JMJD3 (KDM6B) was over 20 µM; against JARID1C (KDM5C) it was over 100 µM; against FBXL11 (KDM2A), 20 µM. For the same compound, the “HIF1α prolyl-hydroxylation (HyPro402, HyPro564)” value with RCC4 cells was “block prolyl-hydroxylation of HIF1α at both NODD (HyPro402) and CODD (HyPro564)”.
On to `O=C(O)CNC(=O)c1c(O)c2ccccc2n(Cc2ccccc2)c1=O` [IOX2], for which the EC50 in the assay on U2OS (5 h treatment, MSD assay) came to 49.5 µM.

Values taken from PMC4492579, “Potent and Selective Triazole-Based Inhibitors of the Hypoxia-Inducible Factor Prolyl-Hydroxylases with Activity in the Murine Brain” (PLoS ONE, 2015).
